These results are taken from the OPERA property sets (Mansouri et al. 2018).

Structures are written as SMILES.

As usually defined, the boiling point is the temperature of boiling at a given pressure. In general, melting point refers to the temperature, or range, at which the solid turns liquid.

In turn, `Clc1cc(Cl)c(Cl)nc1Cl` gave a boiling point of 250 °C and a melting point of 90.5 °C.

The molecule `CN(c1ccccc1)c1ccccc1` came in with a boiling point of 294 °C, a log10 vapour pressure (mmHg) of -2.51 and a melting point of -7.5 °C.

`Clc1ccc2ccccc2n1`: the boiling point was 266 °C and the melting point worked out at 38 °C. In turn, `Cc1cc(Cl)nc(Cl)n1` showed a boiling point of 219 °C and a melting point of 46.5 °C.

In turn, `FC(F)C(F)(F)OCC(F)(F)F` registered a boiling point of 56.2 °C and a log10 vapour pressure (mmHg) of 2.33. In turn, `Oc1ccccc1-c1nnco1` displayed a melting point of 112 °C. In the case of `ClC1=C(Cl)C2(Cl)C(CBr)CC1(Cl)C2(Cl)Cl` (stereo not given), the melting point was determined as 77 °C. In the case of `CCOCCOC(=O)C(C)Oc1ccc(Oc2ncc(C(F)(F)F)cc2Cl)cc1` (stereo not given), the log10 vapour pressure (mmHg) was -10.9 and the melting point was found to be 60 °C. As for `C=C(C)C(=O)NCO`, the melting point is -37 °C. In turn, `CCCC(O)CC(C)C` (stereo not given) returned a boiling point of 164 °C and a melting point of -81 °C. As to `CC(O)C(C)O[N+](=O)[O-]` (stereo not given), the log10 Henry constant (atm·m³/mol) was -7. As to `CCCCCCCC(=O)OC`, the boiling point worked out at 193 °C, the log10 Henry constant (atm·m³/mol) was -3.11, the log10 vapour pressure (mmHg) was -0.267 and the melting point was -40 °C. Further, the ready biodegradability result is listed as “not readily biodegradable”. For `Cc1ccc(Cl)c(OCC(O)CNC(C)(C)C)c1` (stereo not given), the melting point turned out to be 221 °C. Consider `c1ccc2c3c(ccc2c1)-c1cccc2cccc-3c12`, for which the log10 biodegradation half-life (days) stood at 2.48 and the melting point was 166 °C. The molecule `COc1cc(C)cc(OC)c1` had a boiling point of 244 °C.

For the molecule `CCCCCCCCI`, the boiling point stood at 226 °C, the log10 vapour pressure (mmHg) was -0.602 and the melting point is -45.7 °C. On to `CCOc1ccc2ccccc2c1C=O`, for which the melting point came to 115 °C. Molecule `O=C1OCc2c(Cl)c(Cl)c(Cl)c(Cl)c21` registered a log10 Koc (L/kg) of 3.3, a log10 vapour pressure (mmHg) of -7.65 and a melting point of 210 °C. In turn, `CCN1CCNC(=O)C1=O` displayed a melting point of 108 °C. Same read-out and setting: then `O=C(O)Cc1cccc(O)c1`, with 132 °C; and `O=c1n(-c2ccccc2)c(=O)n(-c2ccccc2)c(=O)n1-c1ccccc1`, with 285 °C. The same measure, in the same setting: then `CC(=O)C=NO`, with 69 °C.

Take `O=C=Nc1cccc(N=C=O)c1`: the melting point turned out to be 50 °C. For the molecule `COP(=S)(OC)Oc1ccc(SC)c(C)c1`, the log10 Koc (L/kg) was found to be 3.18, the log10 vapour pressure (mmHg) is -4.98 and the melting point was found to be 7.5 °C. In the case of `CCCCCCCCCCCCC=O`, the melting point worked out at 14 °C. `CC(O)CN(C)C` (stereo not given) registered a boiling point of 124 °C and a melting point of 124 °C. In turn, `CC(C)=CCC[C@@H](C)[C@H]1CC[C@@]2(C)C3=C(CC[C@]12C)[C@@]1(C)CC[C@H](O)C(C)(C)[C@@H]1CC3` returned a melting point of 140 °C.

`O=C=Nc1ccc(Br)cc1` came in with a boiling point of 226 °C. Molecule `COc1ccc2c(c1)c(CC(=O)O)c(C)n2C(=O)/C=C/c1ccccc1` had a melting point of 170 °C.

`C[Si]1(C)O[Si](C)(C)O[Si](C)(C)O[Si](C)(C)O[Si](C)(C)O1` returned a boiling point of 210 °C, a log10 Henry constant (atm·m³/mol) of 1.52, a log10 vapour pressure (mmHg) of -0.699 and a melting point of -38 °C. On to `COC(=O)C1(S(=O)(=O)c2ccc([N+](=O)[O-])cc2)CC1`, for which the melting point turned out to be 127 °C. The molecule `CCCC(C)(C)CCC` showed a boiling point of 135 °C. The same measure, in the same setting: next, `CCN(CC)CCCC(C)N` (stereo not given): 201 °C. For `CCCCCCCCCl`, the boiling point was determined as 182 °C, the log10 vapour pressure (mmHg) is -0.0223, the melting point was -57.8 °C and the ready biodegradability result is given as “readily biodegradable”.

As for `C[Si](C)(C)O[Si](C)(C)O[Si](C)(C)O[Si](C)(C)O[Si](C)(C)C`, the boiling point stood at 232 °C, the log10 vapour pressure (mmHg) was -0.991 and the melting point was -80 °C. As to `Cc1cc(Cl)ccc1OC(C)C(=O)O` (stereo not given), the boiling point worked out at 298 °C, the log10 Koc (L/kg) was 1.3 and the melting point amounted to 94.5 °C.

Molecule `CCCCN(CC)c1c([N+](=O)[O-])cc(C(F)(F)F)cc1[N+](=O)[O-]` gave a boiling point of 370 °C, a log10 Koc (L/kg) of 4.03, a log10 vapour pressure (mmHg) of -4.19 and a melting point of 66 °C. The ready biodegradability entry is on record as “not readily biodegradable”. In turn, `Brc1cccc(Br)c1` came in with a boiling point of 218 °C, a log10 vapour pressure (mmHg) of -0.571 and a melting point of -7 °C. Regarding `CCSCC(=O)O`, the melting point is -8.5 °C. Same read-out and setting: next, `O=c1cc(CO)occ1O`: 154 °C; `N#CCN`: 101 °C. On to `CCCCCC(=O)CC(C)=O`, for which the melting point was -18 °C.

In turn, `CCC(=O)c1ccc(Cl)cc1` came in with a melting point of 37.3 °C.

`O=C(OC(=O)C(F)(F)F)C(F)(F)F` had a boiling point of 39.5 °C, a log10 vapour pressure (mmHg) of 1.61 and a melting point of -65 °C. On to `CCCCCSSCCCCC`, for which the log10 vapour pressure (mmHg) is -2.2. `CC(C)N(C)C`: the boiling point was found to be 66 °C. With `C[Si]1(C)N[Si](C)(C)N[Si](C)(C)N[Si](C)(C)N1`, the boiling point turned out to be 225 °C and the melting point was determined as 97.5 °C.

For `CCC(C)=NO[Si](C)(ON=C(C)CC)ON=C(C)CC`, the ready biodegradability entry is on record as “not readily biodegradable”. `N=C(N)NOCC[C@H](N)C(=O)O` returned a melting point of 184 °C. On the same count and under the same terms, then `NS(=O)(=O)c1ccc(N2C(=O)CC(c3ccccc3)C2=O)c(Cl)c1` (stereo not given), with 206 °C. In turn, `CC1=CCC(C)C1` (stereo not given) gave a boiling point of 93.2 °C. With `CCCCCCCCC(C)=O`, the boiling point was determined as 210 °C, the log10 vapour pressure (mmHg) is -0.571, the melting point turned out to be 14 °C and the ready biodegradability result is listed as “readily biodegradable”. On to `CN(C)C(=O)SCCCCOc1ccccc1`, for which the log10 vapour pressure (mmHg) was -5.9 and the melting point is 40.5 °C. `C=C(C)C(C)=O`: the boiling point came out at 98 °C and the melting point was -54 °C. For `N=C(N)NC(=O)Cc1c(Cl)cccc1Cl`, the melting point worked out at 226 °C.

In the case of `CN[C@@H](C)Cc1ccccc1.Cl`, the melting point was 172 °C.
